This is an account of results in publication PMC2823129 (Lipids, 2009).

For orientation: Km means the concentration of substrate that gives half-maximal velocity.

The test has as its system mitochondrial GPAT (GPAT1-like). Put plainly: […]glycerol-3-phosphate incorporation into organic phase, liquid scintillation. It counts as biochemical, Macrobrachium borellii. As to conditions: read-out: apparent Km; mitochondrial fraction; 0.8 mM glycerol-3-phosphate, 4 mM MgCl2, 2 mg/ml BSA, 8 mM NaF, 1 mM DTT, 75 mM Tris-HCl pH 7.4, 30°C.

As to `CCCCCCCC/C=C\CCCCCCCC(=O)SCCNC(=O)CCNC(=O)[C@H](O)C(C)(C)COP(=O)(O)OP(=O)(O)OC[C@H]1O[C@@H](n2cnc3c(N)ncnc32)[C@H](O)[C@@H]1OP(=O)(O)O` [oleoyl-CoA], the Km amounted to 31.2 µM.
